Tested on: 817829-284-R-J1-PDC complex spheroid viability
Assay: Anticancer human tumor 817829-284-R-J1-PDC patient-derived colon adenocarcinoma cell line growth inhibition [POLQ]
Settings: for IC50: curve of first compound; for viability, T/C: stronger effect = lower value
In short: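 PDC + HUVEC + MSC complex spheroids; POLQ inhibitors ± partner drugs; top conc. at/near clinical Cmax, else 10 microM (SN-38 1 microM), half-log dilutions; 37 degrees C, 5% CO2.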

[1] = second compound 0.0316 µM, first compound 0.0316 µM
[2] = second compound 0.0316 µM, first compound 0.1 µM
[3] = second compound 0.1 µM, first compound 0.0316 µM
[4] = second compound 0.1 µM, first compound 0.1 µM
[5] = second compound 0.316 µM, first compound 0.0316 µM
[6] = second compound 0.316 µM, first compound 0.1 µM
[7] = second compound 1 µM, first compound 0.0316 µM
[8] = second compound 1 µM, first compound 0.1 µM
[9] = second compound 3.16 µM, first compound 0.0316 µM
[10] = second compound 3.16 µM, first compound 0.1 µM
[11] = second compound 10 µM, first compound 0.0316 µM
[12] = second compound 10 µM, first compound 0.1 µM
[13] = second compound 0.0316 µM, first compound 0.000316 µM
[14] = second compound 0.0316 µM, first compound 0.001 µM
[15] = second compound 0.0316 µM, first compound 0.00316 µM
[16] = second compound 0.0316 µM, first compound 0.01 µM
[17] = second compound 0.1 µM, first compound 0.000316 µM
[18] = second compound 0.1 µM, first compound 0.001 µM
[19] = second compound 0.1 µM, first compound 0.00316 µM
[20] = second compound 0.1 µM, first compound 0.01 µM
[21] = second compound 0.316 µM, first compound 0.000316 µM
[22] = second compound 0.316 µM, first compound 0.001 µM
[23] = second compound 0.316 µM, first compound 0.00316 µM
[24] = second compound 0.316 µM, first compound 0.01 µM
[25] = second compound 1 µM, first compound 0.000316 µM
[26] = second compound 1 µM, first compound 0.001 µM
[27] = second compound 1 µM, first compound 0.00316 µM
[28] = second compound 1 µM, first compound 0.01 µM
[29] = second compound 3.16 µM, first compound 0.000316 µM
[30] = second compound 3.16 µM, first compound 0.001 µM
[31] = second compound 3.16 µM, first compound 0.00316 µM
[32] = second compound 3.16 µM, first compound 0.01 µM
[33] = second compound 10 µM, first compound 0.000316 µM
[34] = second compound 10 µM, first compound 0.001 µM
[35] = second compound 10 µM, first compound 0.00316 µM
[36] = second compound 10 µM, first compound 0.01 µM
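Further: spheroids exposed to compounds for 7 days.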
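Wherever viability, T/C is given: 100% = DMSO vehicle-treated spheroids.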

CC1COCCN1c1cc(C2(S(C)(=N)=O)CC2)nc(-c2ccnc3[nH]ccc23)n1 (stereo unspecified) + Cc1cccc(N(C)C(=O)C2C(O)CCN2c2nc(C)cc(C(F)(F)F)c2C#N)c1
IC50 (second compound 0.0316 µM): 377 nM | IC50 (second compound 0.1 µM): 407 nM | IC50 (second compound 0.316 µM): 567 nM | IC50 (second compound 1 µM): 337 nM | IC50 (second compound 3.16 µM): 394 nM | IC50 (second compound 10 µM): 454 nM | viability, T/C [1]: 114% | viability, T/C [2]: 82.1% | viability, T/C (second compound 0.0316 µM, first compound 0.316 µM): 62% | viability, T/C (second compound 0.0316 µM, first compound 1 µM): 20.7% | viability, T/C (second compound 0.0316 µM, first compound 3.16 µM): 9.12% | viability, T/C (second compound 0.0316 µM, first compound 10 µM): 5.39% | viability, T/C [3]: 80.6% | viability, T/C [4]: 91.1% | viability, T/C (second compound 0.1 µM, first compound 0.316 µM): 53.5% | viability, T/C (second compound 0.1 µM, first compound 1 µM): 24.7% | viability, T/C (second compound 0.1 µM, first compound 3.16 µM): 7.03% | viability, T/C (second compound 0.1 µM, first compound 10 µM): 4.47% | viability, T/C [5]: 121% | viability, T/C [6]: 102% | viability, T/C (second compound 0.316 µM, first compound 0.316 µM): 75.9% | viability, T/C (second compound 0.316 µM, first compound 1 µM): 25.7% | viability, T/C (second compound 0.316 µM, first compound 3.16 µM): 9.72% | viability, T/C (second compound 0.316 µM, first compound 10 µM): 5.65% | viability, T/C [7]: 104% | viability, T/C [8]: 118% | viability, T/C (second compound 1 µM, first compound 0.316 µM): 52% | viability, T/C (second compound 1 µM, first compound 1 µM): 30.7% | viability, T/C (second compound 1 µM, first compound 3.16 µM): 7.73% | viability, T/C (second compound 1 µM, first compound 10 µM): 5.65% | viability, T/C [9]: 105% | viability, T/C [10]: 86.3% | viability, T/C (second compound 3.16 µM, first compound 0.316 µM): 54.6% | viability, T/C (second compound 3.16 µM, first compound 1 µM): 28.7% | viability, T/C (second compound 3.16 µM, first compound 3.16 µM): 7.73% | viability, T/C (second compound 3.16 µM, first compound 10 µM): 4.73% | viability, T/C [11]: 75.6% | viability, T/C [12]: 92.2% | viability, T/C (second compound 10 µM, first compound 0.316 µM): 56.6% | viability, T/C (second compound 10 µM, first compound 1 µM): 27.7% | viability, T/C (second compound 10 µM, first compound 3.16 µM): 8.08% | viability, T/C (second compound 10 µM, first compound 10 µM): 5.23%

Cn1ncnc1[C@H]1c2n[nH]c(=O)c3cc(F)cc(c23)N[C@@H]1c1ccc(F)cc1 + Nc1ccc(C#CCN(C(=O)Cc2ncc(C(F)(F)F)cc2C(F)(F)F)c2ccc(F)cc2)nn1
IC50 (second compound 0.0316 µM): 38.9 nM | IC50 (second compound 0.1 µM): 43.5 nM | IC50 (second compound 0.316 µM): 21.4 nM | IC50 (second compound 1 µM): 37.5 nM | IC50 (second compound 3.16 µM): 48.9 nM | IC50 (second compound 10 µM): 26.5 nM | viability, T/C [13]: 97.7% | viability, T/C [14]: 82.9% | viability, T/C [15]: 85% | viability, T/C [16]: 63.8% | viability, T/C [1]: 55.5% | viability, T/C [2]: 35% | viability, T/C [17]: 79.9% | viability, T/C [18]: 89.2% | viability, T/C [19]: 76.1% | viability, T/C [20]: 69.5% | viability, T/C [3]: 58.7% | viability, T/C [4]: 30.9% | viability, T/C [21]: 107% | viability, T/C [22]: 92.5% | viability, T/C [23]: 64.8% | viability, T/C [24]: 64.2% | viability, T/C [5]: 47.4% | viability, T/C [6]: 31.7% | viability, T/C [25]: 94.8% | viability, T/C [26]: 93.2% | viability, T/C [27]: 69.2% | viability, T/C [28]: 65.6% | viability, T/C [7]: 55.2% | viability, T/C [8]: 37.1% | viability, T/C [29]: 87.3% | viability, T/C [30]: 93.8% | viability, T/C [31]: 63.9% | viability, T/C [32]: 67.4% | viability, T/C [9]: 58% | viability, T/C [10]: 41% | viability, T/C [33]: 107% | viability, T/C [34]: 80.1% | viability, T/C [35]: 80.5% | viability, T/C [36]: 61.6% | viability, T/C [11]: 49.7% | viability, T/C [12]: 32.4%

Cn1ncnc1[C@H]1c2n[nH]c(=O)c3cc(F)cc(c23)N[C@@H]1c1ccc(F)cc1 + Cc1cccc(N(C)C(=O)C2C(O)CCN2c2nc(C)cc(C(F)(F)F)c2C#N)c1
IC50 (second compound 0.0316 µM): 10.2 nM | IC50 (second compound 0.1 µM): 17.9 nM | IC50 (second compound 0.316 µM): 14.2 nM | IC50 (second compound 1 µM): 6.63 nM | IC50 (second compound 3.16 µM): 12 nM | IC50 (second compound 10 µM): 6.59 nM | viability, T/C [13]: 79.7% | viability, T/C [14]: 88.5% | viability, T/C [15]: 79% | viability, T/C [16]: 48.3% | viability, T/C [1]: 39.4% | viability, T/C [2]: 25.8% | viability, T/C [17]: 103% | viability, T/C [18]: 93.2% | viability, T/C [19]: 58.9% | viability, T/C [20]: 69% | viability, T/C [3]: 39.2% | viability, T/C [4]: 30% | viability, T/C [21]: 65.8% | viability, T/C [22]: 82.8% | viability, T/C [23]: 85.4% | viability, T/C [24]: 57.6% | viability, T/C [5]: 36.8% | viability, T/C [6]: 28.6% | viability, T/C [25]: 89.3% | viability, T/C [26]: 97.8% | viability, T/C [27]: 68.8% | viability, T/C [28]: 42.5% | viability, T/C [7]: 46.1% | viability, T/C [8]: 29.5% | viability, T/C [29]: 99.1% | viability, T/C [30]: 80% | viability, T/C [31]: 72.4% | viability, T/C [32]: 47.4% | viability, T/C [9]: 41.3% | viability, T/C [10]: 28.4% | viability, T/C [33]: 64.5% | viability, T/C [34]: 86% | viability, T/C [35]: 54.8% | viability, T/C [36]: 47.1% | viability, T/C [11]: 30.4% | viability, T/C [12]: 29.7%

— PubChem BioAssay AID1963839 (Molecular Pharmacology Branch, DTP, NCI, 2024)
